Results from article PMC9596378, “Discovery and molecular basis of subtype-selective cyclophilin inhibitors” (Nature Chemical Biology, 2022).
Read-outs that look alike come from different tables or passages of the source.

Legend:
Experiment in all cases: Chymotrypsin coupled prolyl-isomerase assay
Type in all cases: biochemical
CypG = biological target: T1, CypG (Homo sapiens, UniProt Q13427)
T1 construct: PPIG (UniProtKB Entry Q13427: residues 1–179); His6 with thrombin site (pET28a LIC leader) (N); host or cells: E. coli BL21(DE3)
T1 sequence (Q13427 1-179): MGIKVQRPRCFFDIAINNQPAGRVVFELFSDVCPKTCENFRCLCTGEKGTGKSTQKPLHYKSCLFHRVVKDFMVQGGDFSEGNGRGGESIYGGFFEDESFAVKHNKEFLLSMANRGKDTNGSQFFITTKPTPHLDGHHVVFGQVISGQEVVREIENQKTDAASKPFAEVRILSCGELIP
Outline: (§1)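 Steps: cyclophilin plus compound 5 min at 2–3 °C; α-chymotrypsin added, 5 min more; Suc-AAPF-AMC substrate in LiCl/trifluoroethanol injected and fluorescence followed 330 s. Finals: 5 nM enzyme, 25 µM chymotrypsin, 5 µM substrate, 0.25% DMSO.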

CypA = biological target: T2, CypA (Homo sapiens, UniProt P62937); details: read-out: IC50 CypA
T2 construct: PPIA (UniProtKB Entry P62937: residues 1–165); made in house; host or cells: E. coli BL21(DE3)
Outline: as §1

CypC = biological target: T3, CypC (Homo sapiens, UniProt P45877)
T3 construct: PPIC (UniProtKB Entry P45877: residues 24–212); host or cells: E. coli BL21(DE3)
Outline: as §1

CypE = biological target: T4, CypE (Homo sapiens, UniProt Q9UNP9)
T4 construct: PPIE (UniProtKB Entry Q9UNP9: residues 131–301); host or cells: E. coli BL21(DE3)
Outline: as §1

CypH = biological target: T5, CypH (Homo sapiens, UniProt O43447)
T5 construct: PPIH (UniProtKB Entry O43447: residues 1–177); His6 with TEV site (2BT vector leader) (N); made in house; host or cells: E. coli BL21(DE3)
Outline: as §1

[1] = Independent replicate 1, read-out: IC50 CypG
[2] = Independent replicate 2, read-out: IC50 CypG
[3] = Independent replicate 3, read-out: IC50 CypG
[4] = Independent replicate 4, read-out: IC50 CypG
[5] = prolyl-isomerase inhibition, 5 nM cyclophilin, read-out: IC50 CypG
[6] = wild-type CypG, read-out: Wild-Type Cyclophilin Prolyl Isomerase Inhibition IC50 Values, CypG
[7] = prolyl-isomerase inhibition, 5 nM cyclophilin
[8] = Independent replicate 1, read-out: IC50 CypC
[9] = Independent replicate 2, read-out: IC50 CypC
[10] = Independent replicate 3, read-out: IC50 CypC
[11] = Independent replicate 4, read-out: IC50 CypC
[12] = prolyl-isomerase inhibition, 5 nM cyclophilin, read-out: IC50 CypC
[13] = wild-type CypC, read-out: Wild-Type Cyclophilin Prolyl Isomerase Inhibition IC50 Values, CypC
[14] = Independent replicate 1, read-out: IC50 CypE
[15] = Independent replicate 2, read-out: IC50 CypE
[16] = Independent replicate 3, read-out: IC50 CypE
[17] = Independent replicate 4, read-out: IC50 CypE
[18] = wild-type CypE, read-out: Wild-Type Cyclophilin Prolyl Isomerase Inhibition IC50 Values, CypE
[19] = Independent replicate 1, read-out: IC50 CypH
[20] = Independent replicate 2, read-out: IC50 CypH
[21] = Independent replicate 3, read-out: IC50 CypH
[22] = Independent replicate 4, read-out: IC50 CypH
[23] = prolyl-isomerase inhibition, 5 nM cyclophilin, read-out: IC50 CypH
[24] = wild-type CypH, read-out: Wild-Type Cyclophilin Prolyl Isomerase Inhibition IC50 Values, CypH

T5 sequence (O43447 whole entry, the tested form may be a part): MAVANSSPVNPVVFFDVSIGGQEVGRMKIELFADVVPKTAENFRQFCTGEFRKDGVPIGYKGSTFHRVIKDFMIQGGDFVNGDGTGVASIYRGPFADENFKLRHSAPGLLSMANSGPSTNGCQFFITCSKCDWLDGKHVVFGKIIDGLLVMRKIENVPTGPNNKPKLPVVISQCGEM
T4 sequence (Q9UNP9 131-301): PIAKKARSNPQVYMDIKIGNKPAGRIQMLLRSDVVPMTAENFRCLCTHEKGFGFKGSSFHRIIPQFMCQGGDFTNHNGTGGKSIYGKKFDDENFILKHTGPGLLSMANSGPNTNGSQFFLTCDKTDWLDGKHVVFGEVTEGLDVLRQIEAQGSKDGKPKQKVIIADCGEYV
T2 sequence (P62937 whole entry, the tested form may be a part): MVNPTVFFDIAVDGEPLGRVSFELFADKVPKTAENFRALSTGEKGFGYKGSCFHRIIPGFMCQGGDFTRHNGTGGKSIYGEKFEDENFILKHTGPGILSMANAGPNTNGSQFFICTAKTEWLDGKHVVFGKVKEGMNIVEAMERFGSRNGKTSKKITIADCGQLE
T3 sequence (P45877 24-212): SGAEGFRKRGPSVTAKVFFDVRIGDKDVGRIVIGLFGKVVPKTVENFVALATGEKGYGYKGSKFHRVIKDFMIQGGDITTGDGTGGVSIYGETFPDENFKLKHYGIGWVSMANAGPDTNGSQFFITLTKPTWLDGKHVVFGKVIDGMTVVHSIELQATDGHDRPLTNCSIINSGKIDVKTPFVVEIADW

| SMILES | IC50 (CypG; [1]) | IC50 (CypG; [2]) | IC50 (CypG; [3]) | IC50 (CypG; [4]) | IC50 (CypG; [5]) | IC50 (CypG; [6]) | IC50 (CypA; Independent replicate 2) | IC50 (CypA; Independent replicate 3) | IC50 (CypA; Independent replicate 4) | IC50 (CypA; [7]) | IC50 (CypC; [8]) | IC50 (CypC; [9]) | IC50 (CypC; [10]) | IC50 (CypC; [11]) | IC50 (CypC; [12]) | IC50 (CypC; [13]) | IC50 (CypE; [14]) | IC50 (CypE; [15]) | IC50 (CypE; [16]) | IC50 (CypE; [17]) | also measured |
| --- | --- | --- | --- | --- | --- | --- | --- | --- | --- | --- | --- | --- | --- | --- | --- | --- | --- | --- | --- | --- | --- |
| NCCOCCNC(=O)[C@@H]1CCNC(=O)/C=C/C(=O)N2CCC[C@](Cc3ccccc3)(C2)C(=O)N[C@@H](Cc2ccc(-c3ccc(CC(C(=O)O)C(=O)O)cc3)cc2)C(=O)NCc2ccccc2CC(=O)N1 [Compound B52] | ~80 µM | > 100 µM | ~80 µM | > 100 µM | > 100 µM | > 100 µM | 0.9 ± 0.1 µM | 0.9 ± 0.3 µM | 1.4 ± 0.5 µM | 1.1 µM | > 100 µM | > 100 µM | > 100 µM | > 100 µM | > 100 µM | > 100 µM | 0.21 ± 0.08 µM | 0.4 ± 0.1 µM | 0.3 ± 0.1 µM | 0.36 ± 0.07 µM | IC50 (CypG; prolyl-isomerase inhibition, read-out: IC50 CypG): > 100 µM; IC50 (CypC; prolyl-isomerase inhibition, read-out: IC50 CypC): > 100 µM; IC50 (CypE; [18]): 0.31 µM; IC50 (CypH; [19]): > 100 µM; IC50 (CypH; [20]): > 100 µM; IC50 (CypH; [21]): > 100 µM; IC50 (CypH; [22]): > 100 µM; IC50 (CypH; [23]): > 100 µM; IC50 (CypH; prolyl-isomerase inhibition, read-out: IC50 CypH): > 100 µM; IC50 (CypH; [24]): > 100 µM |
| NCCOCCNC(=O)[C@@H]1CCNC(=O)/C=C/C(=O)N2CCC[C@](Cc3ccccc3)(C2)C(=O)N[C@@H](Cc2ccc(-c3ccc(C(CC(=O)O)CC(=O)O)cc3)cc2)C(=O)NCc2ccccc2CC(=O)N1 [Compound B53] | ~50 µM | > 50 µM | > 50 µM | > 50 µM | > 50 µM | > 50 µM | 3 ± 1 µM | 4 ± 2 µM | 4 ± 1 µM | 3.4 µM | > 50 µM | > 50 µM | > 50 µM | > 50 µM | > 50 µM | > 50 µM | 0.6 ± 0.3 µM | 0.9 ± 0.3 µM | 0.6 ± 0.2 µM | 1.1 ± 0.6 µM | IC50 (CypA; Independent replicate 1): 3 ± 2 µM; IC50 (CypE; [18]): 0.8 µM; IC50 (CypH; [19]): > 50 µM; IC50 (CypH; [20]): > 50 µM; IC50 (CypH; [21]): > 50 µM; IC50 (CypH; [22]): > 50 µM; IC50 (CypH; [23]): > 50 µM; IC50 (CypH; [24]): > 50 µM |
